Experimental data taken from patent publication US20250051338A1, “TYK2 DEGRADERS AND USES THEREOF” (Kymera Therapeutics, Inc., priority 2021, published 2025).

What was measured:
Type in all cases: cell-based
TYK2 [1] = biological target: T1, TYK2 (Homo sapiens, UniProt P29597); experiment: TYK2 degradation MSD assay in EBV-B cells; design: endogenous in cells; host or cells: EBV-B cells; conditions: 4 to 24 hours incubation, read-out: TYK2 MSD DC50 rating in EBV-B
Method: (§1) Example 3. TYK2 Degradation MSD Assay in EBV-B, OCI-LY10, and Human PBMC Cells
(§2) Degradation of TYK2 in cells was quantitatively measured using Meso Scale Discovery (MSD) technology. EBV-B, OCI-LY10 or human PBMC cells were seeded in 96-well plates with a density of 0.4 million cells per well in 100 μl fresh media. Compounds were then added to the assay plates with a final top concentration of 1 to 10 μM in a 1:3 dilution series with total of 9 doses. The assay plates were then incubated for 4 to 24 hours at 37° C. under 5% CO2. The assay plates were then centrifuged for 5 minutes, and the cell pellets were treated with 100 μl/well RIPA lysis buffer (Boston Bioproducts, BP-115D) with protease and phosphatase inhibitors (Roche, 05892791001 and 04906837001). To prepare MSD assay plates (MSD, L15XA), the plates were coated with the capture antibody (Santa Cruz Biotechnology, SC-5271) in PBS, at 40 μl/well. The plates were then incubated overnight at 4° C., washed 3 times with 150 μl/well TBST buffer (Cell Signaling Technology, 9997S) and blocked with 150 μl/well blocking buffer (MSD, R93BA-4). Cell lysates were then added to MSD assay plates and the plates were incubated at room temperature for 1 hour. The plates were then washed 3 times with 150 μl/well TBST buffer and 25 μl/well primary detection antibody (Cell Signaling Technology, #9312). The assay plates were then incubated at room temperature for 1 hour, washed 3 times with 150 μl/well TBST buffer, and 25 μl/well secondary detection antibody, SULFO-TAG anti-rabbit antibody (MSD, R32AB-1) were added. The assay plates were then incubated at room temperature for 1 hour, washed 3 times with 150 μl/well TBST buffer, and 150 μl/well MSD reading buffer (MSD, R92TC-2) were added. The plates were then analyzed by an MSD reader. The data was analyzed by GraphPad Prism and the dose dependent TYK2 degradation was fit using the four-parameter inhibitor vs. response nonlinear regression. The DC50 data were measured and categorized into different levels in Table H. The compound with DC50 less than or equal to 1 nM is marked as A, with DC50 more than 1 nM and less than or equal to 10 nM is marked as B, with DC50 more than 10 nM and less than or equal to 100 nM is marked as C, and with DC50 more than 100 nM or not available is marked as D.

TYK2 [2] = biological target: T1, TYK2; experiment: TYK2 degradation MSD assay in OCI-LY10 cells; design: endogenous in cells; host or cells: EBV-B cells; conditions: 4 to 24 hours incubation, read-out: TYK2 MSD DC50 rating in OCI-LY10
Method: as §1, §2

TYK2 [3] = biological target: T1, TYK2; experiment: TYK2 degradation MSD assay in human PBMC cells; design: endogenous in cells; host or cells: human PBMC; conditions: 4 to 24 hours incubation, read-out: TYK2 MSD DC50 rating in human PBMC
Method: as §1, §2

T1 sequence (P29597 whole entry): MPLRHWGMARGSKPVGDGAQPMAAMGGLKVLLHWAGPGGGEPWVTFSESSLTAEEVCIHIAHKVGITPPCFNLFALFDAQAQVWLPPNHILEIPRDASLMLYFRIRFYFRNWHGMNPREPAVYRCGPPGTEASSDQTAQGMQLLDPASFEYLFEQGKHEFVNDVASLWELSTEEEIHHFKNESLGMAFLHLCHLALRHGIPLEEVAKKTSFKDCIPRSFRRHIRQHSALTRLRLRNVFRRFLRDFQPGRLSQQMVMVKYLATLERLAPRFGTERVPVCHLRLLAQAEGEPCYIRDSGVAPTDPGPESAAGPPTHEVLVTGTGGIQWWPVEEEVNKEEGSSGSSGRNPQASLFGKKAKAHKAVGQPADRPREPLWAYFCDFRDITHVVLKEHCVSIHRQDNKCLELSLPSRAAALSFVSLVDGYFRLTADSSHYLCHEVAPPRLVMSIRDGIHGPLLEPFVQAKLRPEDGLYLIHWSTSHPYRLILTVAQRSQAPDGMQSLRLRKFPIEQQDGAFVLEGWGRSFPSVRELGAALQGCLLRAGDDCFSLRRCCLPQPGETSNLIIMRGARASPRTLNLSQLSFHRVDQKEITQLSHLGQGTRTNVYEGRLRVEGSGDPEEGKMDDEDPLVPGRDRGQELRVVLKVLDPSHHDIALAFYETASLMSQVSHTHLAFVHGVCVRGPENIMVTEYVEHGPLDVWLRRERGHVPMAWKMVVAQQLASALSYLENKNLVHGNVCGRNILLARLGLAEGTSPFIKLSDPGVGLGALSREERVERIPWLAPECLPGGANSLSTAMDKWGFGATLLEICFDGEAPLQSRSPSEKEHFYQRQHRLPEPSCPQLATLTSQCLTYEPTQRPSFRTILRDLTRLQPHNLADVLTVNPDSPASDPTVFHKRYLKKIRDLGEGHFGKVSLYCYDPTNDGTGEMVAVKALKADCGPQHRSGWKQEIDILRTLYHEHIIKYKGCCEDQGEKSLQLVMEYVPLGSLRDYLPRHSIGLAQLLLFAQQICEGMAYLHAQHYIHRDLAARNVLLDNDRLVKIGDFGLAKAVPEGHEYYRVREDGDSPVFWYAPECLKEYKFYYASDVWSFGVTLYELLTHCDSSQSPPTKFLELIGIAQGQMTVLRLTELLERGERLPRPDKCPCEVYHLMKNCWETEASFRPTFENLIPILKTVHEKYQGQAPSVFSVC

Structure (SMILES)	DC50 (TYK2 [1]) [nM]	DC50 (TYK2 [2]) [nM]	DC50 (TYK2 [3]) [nM]
CNc1cc(-c2ccc(N3CCC(CN4CC5(CCN(c6cccc7c6n(C)c(=O)n7C6CCC(=O)NC6=O)CC5)C4)CC3)cc2)nn2c(C(=O)N[C@@H]3C[C@@H]3F)cnc12 (mixture of isomers) [Example K533]	> 100	> 100	> 100
CNc1cc(N2CCc3c(C4CCN(CC5CCN(C(=O)c6ccc(Cl)c(N7CCC(=O)NC7=O)c6)CC5)CC4)cccc32)nn2c(C(=O)N[C@@H]3C[C@@H]3F)cnc12 (racemic) [Example K535]	> 100	> 100	> 100
CNc1cc(N2CCc3c(C4CCN(CC5CCN(c6ccc(-c7ccc8c(c7)n(C)c(=O)n8C7CCC(=O)NC7=O)cc6)CC5)CC4)cccc32)nn2c(C(=O)N[C@@H]3C[C@@H]3F)cnc12 (mixture of isomers) [Example K536]	> 100	< 1	> 100
CNc1cc(Nc2cccc(C3CCN(CC4CCN(c5ccc(-c6cccc7c6n(C)c(=O)n7C6CCC(=O)NC6=O)cc5)CC4)CC3)c2OC)nn2c(C(=O)N[C@@H]3C[C@@H]3F)cnc12 (mixture of isomers) [Example K538]	> 100	> 100	> 100
COc1c(Nc2cc(C(F)F)c3ncc(C(=O)N[C@@H]4C[C@@H]4F)n3n2)cccc1-c1ccc(CN2CCN(c3ccc(-c4ccc5c(c4)n(C)c(=O)n5C4CCC(=O)NC4=O)cc3)CC2)cn1 (mixture of isomers) [Example K539]	> 100	> 100	> 100
CNc1cc(-c2cn(C)c3c(C4CCN(CC5CCN(c6ccc(-c7ccc8c(c7)n(C)c(=O)n8C7CCC(=O)NC7=O)cc6)CC5)CC4)cccc23)nn2c(C(=O)N[C@@H]3C[C@@H]3F)cnc12 (mixture of isomers) [Example K540]	> 100	1 to 10	> 100
CNc1cc(Nc2cccc(-c3ccc(CN4CCN(c5ccc(-c6ccc7c(c6)n(C)c(=O)n7C6CCC(=O)NC6=O)cc5)CC4)cn3)c2Cl)nn2c(C(=O)N[C@@H]3C[C@@H]3F)cnc12 (mixture of isomers) [Example K541]	> 100	< 1	> 100
CNc1cc(Nc2cccc(C#CCN3CCN(c4ccc(-c5ccc6c(c5)n(C)c(=O)n6C5CCC(=O)NC5=O)cc4)CC3)c2OC)nn2c(C(=O)N[C@@H]3C[C@@H]3F)cnc12 (mixture of isomers) [Example K543, 6-({3-[3-(4-{4-[1-(2,6-Dioxopiperidin-3-yl)-3-methyl-2-oxo-1,3-benzodiazol-5-yl]phenyl}piperazin-1-yl)prop-1-yn-1-yl]-2-methoxyphenyl}amino)-N-[(1R,2S)-2-fluorocyclopropyl]-8-(methylamino)imidazo[1,2-b]pyridazine-3-carboxamide]	> 100	< 1	> 100
CNc1cc(N2CCc3c(-c4ccc(CN5CCC6(CC5)CCN(c5ccc7c(c5)n(C)c(=O)n7C5CCC(=O)NC5=O)CC6)cn4)cccc32)nn2c(C(=O)N[C@@H]3C[C@@H]3F)cnc12 (mixture of isomers) [Example K544]	> 100	< 1	> 100
CNc1cc(-c2ccc(N3CCC(CN4CCN(c5ccc(-c6ccc7c(c6)n(C)c(=O)n7C6CCC(=O)NC6=O)cc5)CC4)CC3)cc2)nn2c(C(=O)N[C@@H]3C[C@@H]3F)cnc12 (mixture of isomers) [Example K545]	> 100	> 100	> 100
CNc1cc(N2CCc3c(-c4ccc(CN5CCN(c6ccc(-c7cccc8c(N9CCC(=O)NC9=O)cncc78)cc6)CC5)cn4)cccc32)nn2c(C(=O)N[C@@H]3C[C@@H]3F)cnc12 (racemic) [Example K546]	> 100	> 100	> 100
CNc1cc(Oc2cnn(C3CCN(CC4CCN(c5ccc(-c6ccc7c(c6)n(C)c(=O)n7C6CCC(=O)NC6=O)cc5)CC4)CC3)c2)nn2c(C(=O)N[C@@H]3C[C@@H]3F)cnc12 (mixture of isomers) [Example K547]	> 100	> 100	> 100
CNc1cc(Nc2cnn(CC3CCN(CC4CCN(c5ccc6c(c5)n(C)c(=O)n6C5CCC(=O)NC5=O)CC4)CC3)c2)nn2c(C(=O)N[C@@H]3C[C@@H]3F)cnc12 (mixture of isomers) [Example K548]	> 100	> 100	> 100
CNc1cc(Nc2cccc(-c3ccc(CN4CCN([C@H]5CC[C@@H](c6ccc7c(c6)n(C)c(=O)n7C6CCC(=O)NC6=O)CC5)CC4)cn3)c2OC)nn2c(C(=O)N[C@@H]3C[C@@H]3F)cnc12 (mixture of isomers) [Example K552]	< 1	< 1	> 100
CNc1cc(Nc2cccc(-c3ccc(CN4CCN([C@H]5CC[C@H](c6ccc7c(c6)n(C)c(=O)n7C6CCC(=O)NC6=O)CC5)CC4)cn3)c2OC)nn2c(C(=O)N[C@@H]3C[C@@H]3F)cnc12 (mixture of isomers) [Example K553]	< 1	< 1	> 100
CNc1cc(N2CCc3c(CN4CCN(c5ccc(-c6ccc7c(c6)n(C)c(=O)n7C6CCC(=O)NC6=O)cc5)CC4)cccc32)nn2c(C(=O)N[C@@H]3C[C@@H]3F)cnc12 (mixture of isomers) [Example K575]	> 100	1 to 10	> 100
CNC(=O)c1cnc(NC(=O)CCCCCCCc2ccc3c(c2)n(C)c(=O)n3C2CCC(=O)NC2=O)cc1Nc1cccc(-c2ncc(F)cn2)c1OC (centres unmarked) [Example K104]	> 100	> 100	> 100
CNC(=O)c1cnc(NC(=O)NCCCCc2cccc3c2n(C)c(=O)n3C2CCC(=O)NC2=O)cc1Nc1cccc(-c2ncc(F)cn2)c1OC (centres unmarked) [Example K105]	> 100	> 100	> 100
CNC(=O)c1cnc(NC(=O)NCCCCCCc2cccc3c2n(C)c(=O)n3C2CCC(=O)NC2=O)cc1Nc1cccc(-c2ncc(F)cn2)c1OC (centres unmarked) [Example K106]	> 100	> 100	> 100
CNC(=O)c1cnc(Nc2ccc(C(=O)NCCCCc3ccc4c(c3)n(C)c(=O)n4C3CCC(=O)NC3=O)cn2)cc1Nc1cccc(-c2ncc(F)cn2)c1OC (centres unmarked) [Example K107]	> 100	> 100	< 1
CNC(=O)c1cnc(Nc2ccc(C(=O)NCCCCCCc3ccc4c(c3)n(C)c(=O)n4C3CCC(=O)NC3=O)cn2)cc1Nc1cccc(-c2ncc(F)cn2)c1OC (centres unmarked) [Example K110]	> 100	> 100	< 1
CNC(=O)c1cnc(Nc2ccc(C(=O)NCCCCCCCCc3ccc4c(c3)n(C)c(=O)n4C3CCC(=O)NC3=O)cn2)cc1Nc1cccc(-c2ncc(F)cn2)c1OC (centres unmarked) [Example K111]	1 to 10	> 100	< 1
CNC(=O)c1cnc(Nc2ccc(C(=O)NCCOCCOCCc3ccc4c(c3)n(C)c(=O)n4C3CCC(=O)NC3=O)cn2)cc1Nc1cccc(-c2ncc(F)cn2)c1OC (centres unmarked) [Example K112]	1 to 10	> 100	1 to 10
CNC(=O)c1cnc(Nc2ccc(C(=O)NCCOCCOCCOCCOCCc3ccc4c(c3)n(C)c(=O)n4C3CCC(=O)NC3=O)cn2)cc1Nc1cccc(-c2ncc(F)cn2)c1OC (centres unmarked) [Example K113]	> 100	> 100	1 to 10
CNc1cc(Nc2cccn(-c3cc(C(=O)NCCOCCOCCOCCOCCOCCOCCc4cccc5c4n(C)c(=O)n5C4CCC(=O)NC4=O)ccn3)c2=O)nn2c(C(=O)N[C@@H]3C[C@@H]3F)cnc12 (some centres unmarked) [Example K246]	> 100		
CNc1cc(Nc2cccc(C(=O)NCCCCc3ccc4c(c3)n(C)c(=O)n4C3CCC(=O)NC3=O)c2)nn2c(C(=O)N[C@@H]3C[C@@H]3F)cnc12 (some centres unmarked) [Example K368]	> 100		
CNc1cc(Nc2cccn(-c3ccc(C(=O)N4CCC(CN5CCC(c6ccc7c(c6)n(C)c(=O)n7C6CCC(=O)NC6=O)CC5)CC4)cn3)c2=O)nn2c(C(=O)N[C@@H]3C[C@@H]3F)cnc12 (some centres unmarked) [Example K411]	> 100	< 1	
CNc1cc(Nc2cccc(-c3ccc(CN4CCN(c5ccc(-c6ccc7c(c6)n(C)c(=O)n7C6CCC(=O)NC6=O)cc5)CC4)cn3)c2)nn2c(C(=O)N[C@@H]3C[C@@H]3F)cnc12 (some centres unmarked) [Example K511]	> 100		
